Assays:
[1] = molecular target: human purified recombinant IRAK1 (His-TEV-IRAK1 (194-712)) (Homo sapiens (Human), UniProt P51617); experiment: IRAK1 enzymatic assay (ADP-Glo luminescence); type: biochemical; conditions: ATP 1 μM, 2 h at RT
Method: IRAK1 is a human purified recombinant enzyme (His-TEV-IRAK1 (194-712))
In this assay, IRAK1 hydrolyses ATP and autophosphorylates. Measurement of IRAK-1 inhibition is performed in 384-well format based on luminescence assay (ADP-Glo™ Kinase Assay from Promega). Purified human recombinant IRAK1 (0.3 μg/ml) and serial diluted compounds in DMSO (range of concentration from 10 μM to 0.5 nM) or controls (1% DMSO) are incubated for 15 minutes at RT in assay buffer containing 50 mM Hepes pH 7.0, Fatty acid-free BSA 0.1%, Dithiothreitol (DTT) 2 mM, MgCl2 10 mM, EGTA 0.5 mM, Triton X-100 0.01%. The kinase reaction is then initiated by the addition of ATP at a concentration of 1 μM. After 2 hours of incubation at RT, the reaction is stopped and the unconsumed ATP depleted by the addition of ADP-Glo™ Reagent according to supplier instructions. After 40 minutes of incubation at RT, the Kinase Detection Reagent is then added to the assay plate according to supplier instructions. After 20 minutes of incubation at RT, the luminescence signal is measured with a luminometer (PerkinElmer Envision or equivalent reader).

[2] = molecular target: human purified recombinant IRAK4 (His-TEV-IRAK4 (1-460)) (Homo sapiens (Human), UniProt Q9NWZ3); experiment: IRAK4 enzymatic assay (ADP-Glo luminescence); type: biochemical; conditions: ATP 2 μM, STK1-biotin peptide 300 nM, 2 h at RT
Method: IRAK4 is a human purified recombinant enzyme (His-TEV-IRAK4 (1-460)).
In this assay, IRAK4 hydrolyses ATP, autophosphorylates and phosphorylates a Serine/Threonine generic peptidic substrate (STK: 61ST1BLC from CisBio International). Measurement of IRAK-4 inhibition is performed in 384-well format based on a luminescence assay (ADP-Glo™ Kinase Assay from Promega). Purified human recombinant IRAK4 (0.3 μg/ml) and serial diluted compounds in DMSO (range of concentration from 10 μM to 0.5 nM) or controls (1% DMSO) are incubated for 15 minutes at RT in assay buffer containing 50 mM Hepes pH 7.0, Fatty acid-free BSA 0.1%, Dithiothreitol (DTT) 2 mM, MgCl2 10 mM, EGTA 0.5 mM, Triton X-100 0.01%, MnCl2 5 mM. The kinase reaction is then initiated by the addition of ATP (2 μM) and the peptidic substrate STK1-biotin peptide (300 nM). After 2 hours of incubation at RT, the reaction is stopped and the unconsumed ATP depleted by the addition of ADP-Glo™ Reagent according to supplier instructions. After 40 minutes of incubation at RT, the Kinase Detection Reagent is then added to the assay plate according to supplier instructions. After 20 minutes of incubation at RT, the luminescence signal is measured with a plate-reading luminometer (PerkinElmer Envision or equivalent reader).

human purified recombinant IRAK1 (His-TEV-IRAK1 (194-712)), sequence (P51617 194-712): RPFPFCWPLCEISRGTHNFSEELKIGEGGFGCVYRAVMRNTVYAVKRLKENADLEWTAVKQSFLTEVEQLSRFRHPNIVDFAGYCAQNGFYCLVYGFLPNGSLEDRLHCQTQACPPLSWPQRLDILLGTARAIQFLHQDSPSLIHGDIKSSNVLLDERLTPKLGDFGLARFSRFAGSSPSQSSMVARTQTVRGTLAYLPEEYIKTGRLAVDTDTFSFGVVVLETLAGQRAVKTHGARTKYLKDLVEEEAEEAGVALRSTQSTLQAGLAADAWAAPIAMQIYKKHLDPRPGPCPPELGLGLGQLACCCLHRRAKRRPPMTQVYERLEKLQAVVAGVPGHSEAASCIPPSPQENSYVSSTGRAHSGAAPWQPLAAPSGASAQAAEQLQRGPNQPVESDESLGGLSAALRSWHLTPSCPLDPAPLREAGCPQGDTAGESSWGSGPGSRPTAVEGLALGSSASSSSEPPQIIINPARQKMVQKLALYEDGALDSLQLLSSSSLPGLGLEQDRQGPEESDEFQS
human purified recombinant IRAK4 (His-TEV-IRAK4 (1-460)), sequence (Q9NWZ3 whole entry): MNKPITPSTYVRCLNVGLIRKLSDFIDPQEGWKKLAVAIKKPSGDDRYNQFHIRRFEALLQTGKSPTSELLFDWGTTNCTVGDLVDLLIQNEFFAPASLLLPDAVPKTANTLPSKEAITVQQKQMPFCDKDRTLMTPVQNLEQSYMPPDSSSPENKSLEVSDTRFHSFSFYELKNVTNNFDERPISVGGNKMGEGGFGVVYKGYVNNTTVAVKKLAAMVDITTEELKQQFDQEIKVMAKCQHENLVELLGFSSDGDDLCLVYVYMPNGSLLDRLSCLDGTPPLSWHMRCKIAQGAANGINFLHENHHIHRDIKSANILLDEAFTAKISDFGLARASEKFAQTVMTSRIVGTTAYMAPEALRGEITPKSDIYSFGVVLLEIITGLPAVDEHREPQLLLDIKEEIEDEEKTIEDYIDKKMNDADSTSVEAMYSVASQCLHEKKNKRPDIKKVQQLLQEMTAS

| IC50 [1] [nM] | IC50 [2] [nM] | Compound |
| --- | --- | --- |
| 100 to 1000 | < 100 | Cn1cc2c(n1)C(=O)NCCCOc1ccc(=O)n(n1)Cc1cccc(c1)C(=O)N2 [Compound 1, 12-methyl-20-oxa-1,9,12,13,16,25-hexaazatetracyclo[19.3.1.1^3,70^10,14]hexacosa-3,5,7(26),10,13,21(25),22-heptaene-8,15,24-trione] |
| < 100 | < 100 | Cn1cc2c(n1)C(=O)NCCn1cc(cn1)-c1ccc(=O)n(n1)Cc1cccc(c1)C(=O)N2 [Compound 2, 12-methyl-4,5,8,11,12,15,23,27-octaazapentacyclo[21.3.1.1^2,5.1^17,210^10,14]nonacosa-1(27),2(29) 3,10,13,17(28),18,20,25-nonaene-9,16,24-trione] |
| 100 to 1000 | < 100 | Cn1cc2c(n1)C(=O)NCc1cncc(c1)-c1ccc(=O)n(n1)Cc1cccc(c1)C(=O)N2 [Compound 3, 17-methyl-6,14,17,18,21,25,29-heptaazapentacyclo[21.3.1.1^2,61^8,12.0^15,19]nonacosa-1(27),2(29), 3,8,10,12(28),15,18,23,25-decaene-5,13,20-trione] |
| > 5000 | > 5000 | Cn1cc2c(n1)C(=O)NCCOc1ccc(=O)n(n1)Cc1cccc(c1)C(=O)N2 [Compound 4, 12-methyl-19-oxa-1,9,12,13,16,24-hexaazatetracyclo[18.3.1.1^3,7.0^10,14]pentacosa-3,5,7(25),10,13,20(24),21-heptaene-8,15,23-trione] |
| 100 to 1000 | < 100 | O=C1Nc2cn(C3CCOCC3)nc2C(=O)NCCCOc2ccc(=O)n(n2)Cc2cccc1c2 [Compound 6, 12-(oxan-4-yl)-20-oxa-1,9,12,13,16,25-hexaazatetracyclo[19.3.1.1^3,7.0^10,14]hexacosa-3,5,7(26),10,13,21(25),22-heptaene-8,15,24-trione] |
| 100 to 1000 | < 100 | CC(C)(C)n1cc2c(n1)C(=O)NCCCOc1ccc(=O)n(n1)Cc1cccc(c1)C(=O)N2 [Compound 7, 12-tert-butyl-20-oxa-1,9,12,13,16,25-hexaazatetracyclo[19.3.1.1^3,7.0^10,14]hexacosa-3,5,7(26),10,13,21(25),22-heptaene-8,15,24-trione] |
| > 5000 | < 100 | Cn1cc2c(n1)C(=O)NCCCOc1ccc(=O)n(n1)Cc1cccc(n1)C(=O)N2 [Compound 8, 12-methyl-20-oxa-1,9,12,13,16,25,26-heptaazatetracyclo[19.3.1.1^3,70^10,14]hexacosa-3,5,7(26),10,13,21(25),22-heptaene-8,15,24-trione] |
| > 5000 | < 100 | O=C1Nc2cn(C3CCOCC3)nc2C(=O)NCCCOc2ccc(=O)n(n2)Cc2cccc1n2 [Compound 9, 12-(oxan-4-yl)-20-oxa-1,9,12,13,16,25,26-heptaazatetracyclo[19.3.1.1^3,7.0^10,14]hexacosa-3,5,7(26),10,13,21(25),22-heptaene-8,15,24-trione] |
| – | 1000 to 5000 | CC(C)(C)n1cc2c(n1)C(=O)NCCCOc1ccc(=O)n(n1)Cc1cccc(n1)C(=O)N2 [Compound 10, 12-tert-butyl-20-oxa-1,9,12,13,16,25,26-heptaazatetracyclo[19.3.1.1^3,7.0^10,14]hexacosa-3,5,7(26),10,13,21(25),22-heptaene-8,15,24-trione] |
| 100 to 1000 | < 100 | O=C1Nc2cn(C3CCOCC3)nc2C(=O)NCC(O)COc2ccc(=O)n(n2)Cc2cccc1c2 (stereo not drawn) [Compound 11, 18-hydroxy-12-(oxan-4-yl)-20-oxa-1,9,12,13,16,25-hexaazatetracyclo[19.3.1.1^3,7.0^10,14]hexacoa-3,5,7(26),10,13,21(25),22-heptaene-8,15,24-trione] |
| 1000 to 5000 | < 100 | Cn1cc2c(n1)C(=O)NCC(O)COc1ccc(=O)n(n1)Cc1cccc(c1)C(=O)N2 (stereo not drawn) [Compound 12, 18-hydroxy-12-methyl-20-oxa-1,9,12,13,16,25-hexaazatetracyclo[19.3.1.1^3,7.0^10,14]hexacosa-3,5,7(26),10,13,21(25),22-heptaene-8,15,24-trione] |
| 100 to 1000 | < 100 | Cn1cc2c(n1)C(=O)NCc1cc(ccn1)-c1ccc(=O)n(n1)Cc1cccc(c1)C(=O)N2 [Compound 13, 17-methyl-6,14,17,18,21,24,29-heptaazapentacyclo[21.3.1.1^2,6.1^8,12.0^15,19]nonacosa-1(27),2(29),3,8,10,12(28),15,18,23,25-decaene-5,13,20-trione] |
| 100 to 1000 | < 100 | Cn1cc2c(n1)C(=O)NCCc1cccc(c1)-c1ccc(=O)n(n1)Cc1cccc(c1)C(=O)N2 [Compound 14, 17-methyl-6,14,17,18,21,30-hexaazapentacyclo[22.3.1.1^2,6.1^8,12.0^15,19]triaconta-1(28),2(30),3,8,10,12(29),15,18,24,26-decaene-5,13,20-trione] |
| > 5000 | > 5000 | Cc1cc2n(n1)CCc1cccc(c1)-c1ccc(=O)n(n1)Cc1cccc(c1)C(=O)N2 [Compound 15, 17-methyl-6,14,18,19,28-pentaazapentacyclo[20.3.1.1^2,6.1^8,12.0^15,19]octacosa-1(26),2(28),3,8,10,12(27)15,17,22,24-decaene-5,13-dione] |

Source: US9624246B2, “Pyridazinone macrocycles as IRAK inhibitors and uses thereof” (Merck Patent GmbH, priority 2015, dated 2017)
